Patent US4539401A, “Pyridobenzoxazine derivatives useful as antibacterial agents” (Daiichi Seiyaku Co., Ltd., priority 1982, dated 1985)
In brackets after ≈: the same amount, converted by molar mass. Where a name gives a salt, the structure may show the parent alone.

Key:
B. subtilis, ATCC-6633 = assay: MIC, standard method of the Japan Society of Chemotherapy (Mueller-Hinton Broth medium); format: cell-based; settings: Bacillus subtilis, ATCC6633, 10^6 /ml of bacteria, 37° C., 18 hours
Method: (§1) *Determined by the standard method of the Japan Society of Chemoterapy:
(§2) (MuellerHinton Broth medium), 10^6 /ml of bacteria were seeded and
(§3) incubated at 37° C. for 18 hours.

E. coli, NIHJ = assay: as above; format: cell-based; settings: Escherichia coli, 10^6 /ml of bacteria, 37° C., 18 hours
Method: as §1, §2, §3

Ent. cloacae, 03400 = assay: as above; format: cell-based; settings: Enterobacter cloacae, 10^6 /ml of bacteria, 37° C., 18 hours
Method: as §1, §2, §3

K. pneumoniae, type 1 = assay: as above; format: cell-based; settings: Klebsiella pneumoniae, TYPE1, 10^6 /ml of bacteria, 37° C., 18 hours
Method: as §1, §2, §3

Pr. mirabilis, IFO-3849 = assay: as above; format: cell-based; settings: Proteus mirabilis, IFO3849, 10^6 /ml of bacteria, 37° C., 18 hours
Method: as §1, §2, §3

Pr. vulgaris, 08602 = assay: as above; format: cell-based; settings: Proteus vulgaris, 10^6 /ml of bacteria, 37° C., 18 hours
Method: as §1, §2, §3

Ps. aeruginosa, 32104 = assay: as above; format: cell-based; settings: Pseudomonas aeruginosa, 10^6 /ml of bacteria, 37° C., 18 hours
Method: as §1, §2, §3

Ps. aeruginosa, 32121 = assay: as above; format: cell-based; settings: Pseudomonas aeruginosa, 10^6 /ml of bacteria, 37° C., 18 hours
Method: as §1, §2, §3

Ps. aeruginosa, 32122 = assay: as above; format: cell-based; settings: Pseudomonas aeruginosa, 10^6 /ml of bacteria, 37° C., 18 hours
Method: as §1, §2, §3

Ps. aeruginosa, 32233 = assay: as above; format: cell-based; settings: Pseudomonas aeruginosa, 10^6 /ml of bacteria, 37° C., 18 hours
Method: as §1, §2, §3

Ps. aeruginosa, 32234 = assay: as above; format: cell-based; settings: Pseudomonas aeruginosa, 10^6 /ml of bacteria, 37° C., 18 hours
Method: as §1, §2, §3

S. aureus, 209 P = assay: as above; format: cell-based; settings: Staphylococcus aureus, 10^6 /ml of bacteria, 37° C., 18 hours
Method: as §1, §2, §3

S. epidermidis, 56500 = assay: as above; format: cell-based; settings: Staphylococcus epidermidis, 10^6 /ml of bacteria, 37° C., 18 hours
Method: as §1, §2, §3

Ser. marcescens, 10104 = assay: as above; format: cell-based; settings: Serratia marcescens, 10^6 /ml of bacteria, 37° C., 18 hours
Method: as §1, §2, §3

Sh. flexneri, 2a, 5503 = assay: as above; format: cell-based; settings: Shigella flexneri, 10^6 /ml of bacteria, 37° C., 18 hours
Method: as §1, §2, §3

[1] = test system: Str. faecalis, ATCC-19433; assay: as above; format: cell-based; settings: Enterococcus faecalis, ATCC19433, 10^6 /ml of bacteria, 37° C., 18 hours
Method: as §1, §2, §3

Str. pyogenes, G-36 = assay: as above; format: cell-based; settings: Streptococcus pyogenes, G36, 10^6 /ml of bacteria, 37° C., 18 hours
Method: as §1, §2, §3

Gram-positive bacteria = assay: antibacterial activity, statement in words; format: cell-based; settings: from Table 1
Method: as §1, §2, §3

[2] = acute toxicity (LD 50) in mice (i.v.); settings: mouse, in vivo, iv
Pseudomonas aeruginosa = assay: antibacterial activity, statement in words; format: cell-based; settings: from Table 1
Method: as §1, §2, §3

| Structure (SMILES) | MIC (B. subtilis, ATCC-6633) [µg/mL] | MIC (E. coli, NIHJ) [µg/mL] | MIC (Ent. cloacae, 03400) [µg/mL] | MIC (K. pneumoniae, type 1) [µg/mL] | MIC (Pr. mirabilis, IFO-3849) [µg/mL] | MIC (Pr. vulgaris, 08602) [µg/mL] | MIC (Ps. aeruginosa, 32104) [µg/mL] | MIC (Ps. aeruginosa, 32121) [µg/mL] | MIC (Ps. aeruginosa, 32122) [µg/mL] | MIC (Ps. aeruginosa, 32233) [µg/mL] | MIC (Ps. aeruginosa, 32234) [µg/mL] | MIC (S. aureus, 209 P) [µg/mL] | MIC (S. epidermidis, 56500) [µg/mL] | MIC (Ser. marcescens, 10104) [µg/mL] | MIC (Sh. flexneri, 2a, 5503) [µg/mL] | MIC [1] [µg/mL] | MIC (Str. pyogenes, G-36) [µg/mL] | antibacterial activity against Gram-positive bacteria (Gram-positive bacteria) | LD50 [2] [mg/kg] | antibacterial activity against Pseudomonas aeruginosa (Pseudomonas aeruginosa) |
| --- | --- | --- | --- | --- | --- | --- | --- | --- | --- | --- | --- | --- | --- | --- | --- | --- | --- | --- | --- | --- |
| C=C1COc2c(N3CCC(O)C3)c(F)cc3c(=O)c(C(=O)O)cn1c23 (centres unmarked) [Ia, 9-fluoro-10-(3-hydroxy-1-pyrrolidnyl)-3-methylene-7-oxo-2,3-dihydro-7H-pyrido(1,2,3-de)-1,4-benzoxazine-6-carboxylic acid] | ≤ 0.0063 | 0.0125 (≈ 0.0361 µM) | 0.05 (≈ 0.144 µM) | 0.19 (≈ 0.549 µM) | 0.05 (≈ 0.144 µM) | 0.025 (≈ 0.0722 µM) | 0.78 (≈ 2.25 µM) | 0.19 (≈ 0.549 µM) | 0.78 (≈ 2.25 µM) | 0.78 (≈ 2.25 µM) | 0.78 (≈ 2.25 µM) | 0.05 (≈ 0.144 µM) | 0.19 (≈ 0.549 µM) | 0.1 (≈ 0.289 µM) | 0.025 (≈ 0.0722 µM) | 0.39 (≈ 1.13 µM) | 0.78 (≈ 2.25 µM) | very strong antibacterial activity | – | – |
| C=C1COc2c(N3CCC(O)C3)c(F)cc3c(=O)c(C(=O)O)cn1c23 (centres unmarked) [Ia, sodium salt] | – | – | – | – | – | – | – | – | – | – | – | – | – | – | – | – | – | – | 333 | – |
| C=C1COc2c(N3CCC(N)C3)c(F)cc3c(=O)c(C(=O)O)cn1c23 (centres unmarked) [Ib, 10-(3-amino-1-pyrrolidinyl)-9-fluoro-3-methylene-7-oxo-2,3-dihydro-7H-pyrido(1,2,3-de)-1,4-benzoxazine-6-carboxylic acid] | 0.05 (≈ 0.145 µM) | 0.025 (≈ 0.0724 µM) | 0.025 (≈ 0.0724 µM) | 0.05 (≈ 0.145 µM) | 0.025 (≈ 0.0724 µM) | 0.025 (≈ 0.0724 µM) | 0.1 (≈ 0.29 µM) | 0.05 (≈ 0.145 µM) | 0.1 (≈ 0.29 µM) | 0.19 (≈ 0.55 µM) | 0.1 (≈ 0.29 µM) | 0.1 (≈ 0.29 µM) | 0.39 (≈ 1.13 µM) | 0.05 (≈ 0.145 µM) | 0.0125 (≈ 0.0362 µM) | 0.78 (≈ 2.26 µM) | 0.78 (≈ 2.26 µM) | – | – | very strong antibacterial activity |
| C=C1COc2c(N3CCC(N)C3)c(F)cc3c(=O)c(C(=O)O)cn1c23 (centres unmarked) [Ib, methanesulfonic acid addition salt] | – | – | – | – | – | – | – | – | – | – | – | – | – | – | – | – | – | – | > 320 | – |
